From the supplement of paper PMC10627819

Tests used:
[1] = test system: B. subtilis 168; experiment: fitness (endpoint OD595 vs no drug) (fraction); higher = more growth
In short: (§1)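 Bacterial fitness was scored as optical density at the stationary-phase transition relative to the robust mean of no-drug control wells. Scores are capped at 1. The growth data were OD595 readings every 30 min for 14 h at 37 °C, background-subtracted against the first reading, from 384-well plates inoculated at OD595 0.01 in TSB, LB Lennox or CY.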

[2] = test system: S. aureus DSM 20231; experiment: as above
In short: as §1

[3] = test system: S. pneumoniae D39V; experiment: as above
In short: as §1

[4] = test system: S. aureus Newman; experiment: as above
In short: as §1

[5] = test system: B. subtilis 168; experiment: Bliss interaction score (quartile over a dose matrix) (fitness difference); higher = more antagonism (negative = synergy)
In short: (§2)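 Each plate was normalised to the robust mean of its own no-drug wells, using OD595 at entry into stationary phase, with values capped at 1. This normalised growth is the fitness value. The Bliss score is the difference between observed and product-expected fitness, with single-drug fitness inferred from the combination data and quartiles taken over technical, biological and donor/recipient replicates.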

[6] = test system: S. aureus DSM 20231; experiment: as above
In short: as §2

[7] = test system: S. pneumoniae D39V; experiment: as above
In short: as §2

[8] = test system: S. aureus Newman; experiment: as above
In short: as §2

[9] = first compound 1.562 µg/mL, partner 1.25 µg/mL
[10] = first compound 1.562 µg/mL, partner 2.5 µg/mL
[11] = first compound 1.562 µg/mL, partner 5 µg/mL
[12] = first compound 3.124 µg/mL, partner 1.25 µg/mL
[13] = first compound 3.124 µg/mL, partner 2.5 µg/mL
[14] = first compound 3.124 µg/mL, partner 5 µg/mL
[15] = first compound 0.781 µg/mL, partner 1.25 µg/mL
[16] = first compound 0.781 µg/mL, partner 2.5 µg/mL
[17] = first compound 0.781 µg/mL, partner 5 µg/mL
[18] = first compound 1.562 µg/mL, partner 1 µg/mL
[19] = first compound 1.562 µg/mL, partner 2 µg/mL
[20] = first compound 1.562 µg/mL, partner 4 µg/mL
[21] = first compound 3.124 µg/mL, partner 1 µg/mL
[22] = first compound 3.124 µg/mL, partner 2 µg/mL
[23] = first compound 3.124 µg/mL, partner 4 µg/mL
[24] = first compound 0.781 µg/mL, partner 1 µg/mL
[25] = first compound 0.781 µg/mL, partner 2 µg/mL
[26] = first compound 0.781 µg/mL, partner 4 µg/mL
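Wherever Bliss interaction score (quartile over a dose matrix) is given: first quartile when negative (synergy) and third quartile when positive (antagonism).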

**Q.** How did the fitness [1, 9] turn out when `C[C@@H]1O[C@@H]1P(=O)(O)O` [Fosfomycin] + C[n+]1ccc(-c2cc[n+](C)cc2)cc1 [Paraquat] was run?
**A.** Its fitness is 0.681.

**Q.** And the fitness [1, 10]?
**A.** Its fitness is 0.673.

**Q.** What about the fitness [1, 11] of the same compound?
**A.** Its fitness is 0.567.

**Q.** What about the fitness [1, 12] of the same compound?
**A.** The fitness was 0.529.

**Q.** What about the fitness [1, 13] of the same compound?
**A.** Its fitness is 0.598.

**Q.** And the fitness [1, 14]?
**A.** The fitness was 0.519.

**Q.** And the fitness ([1]; first compound 6.248 µg/mL, partner 1.25 µg/mL)?
**A.** Its fitness is 0.381.

**Q.** And the fitness ([1]; first compound 6.248 µg/mL, partner 2.5 µg/mL)?
**A.** Its fitness is 0.386.

**Q.** What about the fitness ([1]; first compound 6.248 µg/mL, partner 5 µg/mL) of the same compound?
**A.** The fitness was 0.3.

**Q.** What about the fitness [2, 15] of the same compound?
**A.** Its fitness is 0.717.

**Q.** What about the fitness [2, 16] of the same compound?
**A.** Its fitness is 0.7.

**Q.** And the fitness [2, 17]?
**A.** Its fitness is 0.702.

**Q.** What about the fitness [2, 9] of the same compound?
**A.** The fitness was 0.593.

**Q.** What about the fitness [2, 10] of the same compound?
**A.** The fitness was 0.551.

**Q.** What about the fitness [2, 11] of the same compound?
**A.** Its fitness is 0.585.

**Q.** And the fitness [2, 12]?
**A.** Its fitness is 0.481.

**Q.** What about the fitness [2, 13] of the same compound?
**A.** Its fitness is 0.51.

**Q.** And the fitness [2, 14]?
**A.** Its fitness is 0.476.

**Q.** What about the fitness ([3]; first compound 1.25 µg/mL, partner 1.5 µg/mL) of the same compound?
**A.** The fitness was 0.985.

**Q.** And the fitness ([3]; first compound 1.25 µg/mL, partner 3 µg/mL)?
**A.** Its fitness is 0.959.

**Q.** What about the fitness ([3]; first compound 1.25 µg/mL, partner 6 µg/mL) of the same compound?
**A.** Its fitness is 0.985.

**Q.** What about the fitness ([3]; first compound 2.5 µg/mL, partner 1.5 µg/mL) of the same compound?
**A.** The fitness was 0.974.

**Q.** What about the fitness ([3]; first compound 2.5 µg/mL, partner 3 µg/mL) of the same compound?
**A.** The fitness was 0.973.

**Q.** What about the fitness ([3]; first compound 2.5 µg/mL, partner 6 µg/mL) of the same compound?
**A.** The fitness was 0.97.

**Q.** And the fitness ([3]; first compound 5 µg/mL, partner 1.5 µg/mL)?
**A.** The fitness was 0.812.

**Q.** What about the fitness ([3]; first compound 5 µg/mL, partner 3 µg/mL) of the same compound?
**A.** Its fitness is 0.831.

**Q.** And the fitness ([3]; first compound 5 µg/mL, partner 6 µg/mL)?
**A.** Its fitness is 0.791.

**Q.** And the fitness [4, 15]?
**A.** Its fitness is 0.542.

**Q.** And the fitness [4, 16]?
**A.** The fitness was 0.546.

**Q.** And the fitness [4, 17]?
**A.** Its fitness is 0.574.

**Q.** And the fitness [4, 9]?
**A.** Its fitness is 0.468.

**Q.** What about the fitness [4, 10] of the same compound?
**A.** Its fitness is 0.47.

**Q.** And the fitness [4, 11]?
**A.** Its fitness is 0.483.

**Q.** And the fitness [4, 12]?
**A.** Its fitness is 0.0901.

**Q.** And the fitness [4, 13]?
**A.** The fitness was 0.116.

**Q.** What about the fitness [4, 14] of the same compound?
**A.** Its fitness is 0.169.

**Q.** And the Bliss interaction score [5]?
**A.** The Bliss interaction score was -0.0619.

**Q.** And the Bliss interaction score [6]?
**A.** The Bliss interaction score was -0.101.

**Q.** And the Bliss interaction score [7]?
**A.** Its Bliss interaction score is -0.0411.

**Q.** What about the Bliss interaction score [8] of the same compound?
**A.** The Bliss interaction score was -0.12.

**Q.** `C[C@@H]1O[C@@H]1P(=O)(O)O` [Fosfomycin] + Cc1cc(NS(=O)(=O)c2ccc(N)cc2)no1 [Sulfamethoxazol] was tested. Which fitness ([1]; first compound 1.562 µg/mL, partner 0.5 µg/mL, one replicate) did it give?
**A.** The fitness was 0.794.

**Q.** And the fitness [1, 18]?
**A.** The fitness was 0.652.

**Q.** What about the fitness [1, 19] of the same compound?
**A.** The fitness was 0.673.

**Q.** And the fitness [1, 20]?
**A.** Its fitness is 0.679.

**Q.** And the fitness ([1]; first compound 3.124 µg/mL, partner 0.5 µg/mL, one replicate)?
**A.** The fitness was 0.686.

**Q.** What about the fitness [1, 21] of the same compound?
**A.** The fitness was 0.548.

**Q.** And the fitness [1, 22]?
**A.** The fitness was 0.557.

**Q.** And the fitness [1, 23]?
**A.** Its fitness is 0.516.

**Q.** And the fitness ([1]; first compound 6.248 µg/mL, partner 0.5 µg/mL, one replicate)?
**A.** Its fitness is 0.592.

**Q.** And the fitness ([1]; first compound 6.248 µg/mL, partner 1 µg/mL)?
**A.** Its fitness is 0.489.

**Q.** What about the fitness ([1]; first compound 6.248 µg/mL, partner 2 µg/mL) of the same compound?
**A.** Its fitness is 0.378.

**Q.** And the fitness ([1]; first compound 6.248 µg/mL, partner 4 µg/mL)?
**A.** The fitness was 0.379.

**Q.** And the fitness [2, 24]?
**A.** Its fitness is 0.709.

**Q.** What about the fitness [2, 25] of the same compound?
**A.** Its fitness is 0.696.

**Q.** What about the fitness [2, 26] of the same compound?
**A.** Its fitness is 0.678.

**Q.** And the fitness [2, 18]?
**A.** Its fitness is 0.547.

**Q.** What about the fitness [2, 19] of the same compound?
**A.** The fitness was 0.581.

**Q.** What about the fitness [2, 20] of the same compound?
**A.** The fitness was 0.581.

**Q.** And the fitness [2, 21]?
**A.** The fitness was 0.49.

**Q.** And the fitness [2, 22]?
**A.** The fitness was 0.503.

**Q.** What about the fitness [2, 23] of the same compound?
**A.** Its fitness is 0.509.

**Q.** And the fitness ([3]; first compound 1.25 µg/mL, partner 1 µg/mL)?
**A.** Its fitness is 0.957.

**Q.** What about the fitness ([3]; first compound 1.25 µg/mL, partner 2 µg/mL) of the same compound?
**A.** The fitness was 0.935.

**Q.** And the fitness ([3]; first compound 1.25 µg/mL, partner 4 µg/mL)?
**A.** Its fitness is 0.955.

**Q.** What about the fitness ([3]; first compound 2.5 µg/mL, partner 1 µg/mL) of the same compound?
**A.** Its fitness is 0.918.

**Q.** What about the fitness ([3]; first compound 2.5 µg/mL, partner 2 µg/mL) of the same compound?
**A.** The fitness was 0.925.

**Q.** What about the fitness ([3]; first compound 2.5 µg/mL, partner 4 µg/mL) of the same compound?
**A.** The fitness was 0.943.

**Q.** And the fitness ([3]; first compound 5 µg/mL, partner 1 µg/mL)?
**A.** Its fitness is 0.757.

**Q.** And the fitness ([3]; first compound 5 µg/mL, partner 2 µg/mL)?
**A.** Its fitness is 0.756.

**Q.** And the fitness ([3]; first compound 5 µg/mL, partner 4 µg/mL)?
**A.** Its fitness is 0.78.

**Q.** And the fitness [4, 24]?
**A.** Its fitness is 0.627.

**Q.** And the fitness [4, 25]?
**A.** Its fitness is 0.705.

**Q.** What about the fitness [4, 26] of the same compound?
**A.** Its fitness is 0.71.

**Q.** And the fitness ([4]; first compound 0.781 µg/mL, partner 8 µg/mL, one replicate)?
**A.** The fitness was 0.782.

**Q.** And the fitness [4, 18]?
**A.** Its fitness is 0.513.

**Q.** What about the fitness [4, 19] of the same compound?
**A.** The fitness was 0.572.

**Q.** What about the fitness [4, 20] of the same compound?
**A.** Its fitness is 0.496.

**Q.** And the fitness ([4]; first compound 1.562 µg/mL, partner 8 µg/mL, one replicate)?
**A.** Its fitness is 0.733.

**Q.** What about the fitness [4, 21] of the same compound?
**A.** Its fitness is 0.211.

**Q.** What about the fitness [4, 23] of the same compound?
**A.** The fitness was 0.141.

**Q.** And the fitness ([4]; first compound 3.124 µg/mL, partner 8 µg/mL, one replicate)?
**A.** Its fitness is 0.519.

**Q.** What about the Bliss interaction score [5] of the same compound?
**A.** Its Bliss interaction score is -0.0756.

**Q.** And the Bliss interaction score [6]?
**A.** Its Bliss interaction score is -0.0688.

**Q.** What about the Bliss interaction score [7] of the same compound?
**A.** The Bliss interaction score was -0.0416.

**Q.** And the Bliss interaction score [8]?
**A.** The Bliss interaction score was 0.0933.
